# Data reported in patent US9453244B2, “Method for producing a monoalkene by enzymatic conversion of an alkyl monoester” (Scientist of Fortune S.A., priority 2012, dated 2016).
# Legend:
# [1] = biological target: T1, isoprene synthase from Pueraria montana var. lobata (Pueraria montana var. lobata, UniProt Q6EJ97); assay: GC-MS confirmation of propylene produced from propan-2-yl diphosphate in the enzymatic reaction; type: biochemical; conditions: FIG. 3
# T1 construct: 6xHis (N); made in house; host or cells: E. coli BL21(DE3), pET 25b(+)
# T1 sequence (Q6EJ97 46-608): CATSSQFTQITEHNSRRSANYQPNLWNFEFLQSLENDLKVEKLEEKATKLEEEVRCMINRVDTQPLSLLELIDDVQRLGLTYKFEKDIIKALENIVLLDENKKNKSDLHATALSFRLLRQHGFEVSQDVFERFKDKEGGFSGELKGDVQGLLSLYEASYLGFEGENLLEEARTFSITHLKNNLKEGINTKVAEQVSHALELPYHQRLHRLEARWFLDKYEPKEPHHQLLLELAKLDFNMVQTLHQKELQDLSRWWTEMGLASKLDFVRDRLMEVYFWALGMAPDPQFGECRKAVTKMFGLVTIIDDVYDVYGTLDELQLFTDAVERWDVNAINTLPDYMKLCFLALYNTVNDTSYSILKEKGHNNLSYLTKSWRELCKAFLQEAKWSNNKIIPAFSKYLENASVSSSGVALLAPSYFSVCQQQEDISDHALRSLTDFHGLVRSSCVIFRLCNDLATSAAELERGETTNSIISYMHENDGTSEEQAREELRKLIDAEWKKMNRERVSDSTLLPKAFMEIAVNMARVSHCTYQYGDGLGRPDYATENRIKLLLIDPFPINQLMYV
# Method: (§1) 5 mg of the terpene synthase was added to 0.5 ml of reaction mixture. An enzyme-free control reaction was carried out in parallel. Assays were incubated at 37° C. for 60 hours in a 1.5 ml sealed glass vial (Interchim) with shaking. One ml of the headspace phase was then collected and injected into a gas chromatograph Varian 430-GC equipped with a flame ionization detector (FID). Nitrogen was used as carrier gas with a flow rate of 1.5 mL/min. Volatile compounds were chromatographically separated on RT-Alumina Bond/Na2SO4 column (Restek) using an isothermal mode at 130° C. The enzymatic reaction product was identified by comparison with propylene standard (Sigma). Under these GC conditions, the retention time for propylene was 2.8 min. […] Gas chromatography-mass spectrometry (GC-MS) was then used to confirm the identity of the product detected by gas chromatography with flame ionization. The samples were analyzed on a Varian 3400 CX gas chromatograph equipped with Varian Saturn 3 mass selective detector. The mass spectrum of propylene obtained by enzymatic conversion of propan-2-yl diphosphate was similar to the one of commercial propylene (FIG. 3).
# [2] = test system: purified terpene synthases; assay: Propylene production from propan-2-yl diphosphate with purified terpene synthases (headspace GC/FID); type: biochemical; conditions: 50 mM substrate, 5 mg terpene synthase in 0.5 ml, 37° C., 60 hours
# Method: as §1, with “The enzymatic assays were carried out under the following conditions: 50 mM Tris-HCl pH 7.5 100 mM MgCl2 50 mM KCl 5 mM DTT 50 mM propan-2-yl diphosphate 5 mg” for “5 mg”
substance,measurement,setting,value
propan-2-yl diphosphate,"propylene produced from the substrate, identity confirmed by mass spectrum",[1],propylene produced
same,propylene production from the substrate (enzymatic conversion),[2]; pH 7.5,significant production of propylene
same,propylene production from the substrate (enzymatic conversion),"[2]; pH 7.5, listed as propan-2-yl",able to convert propan-2-yl into propylene
